Measurements published in patent US7034035B2, “Fungicidal mono-, bi-, and tri-cycloheteroalkyl amides and their compositions, methods of use and preparation” (priority 1999, dated 2006).
Read-outs that look alike come from different tables or passages of the source.

Assays:
Erysiphe graminis—ERYSGT = experiment: Powdery Mildew of Wheat, in vivo whole plant, 24 Hour Protectant; conditions: for pest or weed control at 100 ppm: Erysiphe, in Triticum aestivum, 24 h, read-out: ERYSGT in vivo 1 Day Protectant; for ERYSGT in vivo 1 Day Protectant: inoculated after 24 hours
[1] = test system: Puccinia recondita—PUCCRT; experiment: Brown Rust of Wheat, in vivo whole plant, 24 Hour Protectant; conditions: inoculated after 24 hours; for pest or weed control at 100 ppm: Puccinia, read-out: PUCCRT in vivo 1 Day Protectant
Septoria tritici—SEPTTR = experiment: Leaf Blotch of Wheat, in vivo whole plant, 24 Hour Protectant; conditions: inoculated after 24 hours; for pest or weed control at 100 ppm: Zymoseptoria tritici, read-out: SEPTTR in vivo 1 Day Protectant
[2] = test system: Leptosphaeria nodorum—LEPTNO; experiment: Glume Blotch of Wheat, in vivo whole plant, 24 Hour Protectant; conditions: for pest or weed control at 100 ppm: Leptosphaeria, 24 h, read-out: LEPTNO in vivo 1 Day Protectant
[3] = test system: Phytophthora infestans—PHYTIN; experiment: whole plant or invertebrate; type: in vivo; conditions: for pest or weed control at 100 ppm: Phytophthora, in Solanum lycopersicum, 24 h, read-out: PHYTIN in vivo 1 Day Protectant
Ustilago maydis (USTIMA) = experiment: microbe, parasite or virus in culture; type: cell-based
[4] = test system: Rhizoctonia solani (RHIZSO); experiment: microbe, parasite or virus in culture; type: cell-based
[5] = wheat (cultivar Yuma), sprayed at 100 ppm, control of fungal infection vs untreated plants
[6] = wheat (cultivar Yuma), sprayed at 100 ppm, inoculated after 24 hours, control of fungal infection vs untreated plants
[7] = wheat plants sprayed at 100 ppm, control vs untreated plants
[8] = wheat plants sprayed at 100 ppm, inoculated after 24 hours, control vs untreated plants

SMILES | pest or weed control at 100 ppm [1, 5] | pest or weed control at 100 ppm (Septoria tritici—SEPTTR; [5]) | pest or weed control at 100 ppm [2, 6] | USTIMA in vitro Growth Inhibition (Ustilago maydis (USTIMA)) | RHIZSO in vitro Growth Inhibition [4] | other results
COC(=O)C(COC(=O)C(CO[Si](C)(C)C(C)(C)C)Cc1ccccc1)NC(=O)c1nccc(OC)c1O (stereo not shown) [Compound 350] | 75 to 100% | < 25% | 75 to 100% | – | – | pest or weed control at 100 ppm (Erysiphe graminis—ERYSGT): < 25%; pest or weed control at 100 ppm [3]: < 25%
COc1ccnc(C(=O)NC(COC(=O)CCc2ccccc2)C(=O)OC(C)COC(=O)C(C)C)c1O (stereo not shown) [Compound 359] | 75 to 100% | 75 to 100% | – | – | – | –
COc1ccnc(C(=O)NC2CC(C)(C)CCCC2C)c1O (stereo not shown) [Compound 277] | – | 75 to 100% | – | − (key: +: at least 80% growth inhibition; −: less than 80% growth inhibition) | − (key: +: at least 80% growth inhibition; −: less than 80% growth inhibition) | –
COc1ccnc(C(=O)NC2CC(C)(C)/C=C\CC(C)(C)C2)c1O (stereo not shown) [Compound 283] | – | 75 to 100% | – | − (key: +: at least 80% growth inhibition; −: less than 80% growth inhibition) | − (key: +: at least 80% growth inhibition; −: less than 80% growth inhibition) | –
COc1ccnc(C(=O)N[C@@H]2CC3CC2c2ccccc23)c1O (stereo partly shown) [Compound 290] | 75 to 100% | – | 75 to 100% | − (key: +: at least 80% growth inhibition; −: less than 80% growth inhibition) | + (key: +: at least 80% growth inhibition; −: less than 80% growth inhibition) | –
CCC1(C)CC(NC(=O)c2nccc(OC)c2O)CC(C)(C)C1 (stereo not shown) [Compound 251] | 75 to 100% | 75 to 100% | 75 to 100% | − (key: +: at least 80% growth inhibition; −: less than 80% growth inhibition) | − (key: +: at least 80% growth inhibition; −: less than 80% growth inhibition) | –
COc1ccnc(C(=O)N[C@H]2COC(=O)[C@H](Cc3ccccc3)[C@@H](OCC(C)C)[C@H](C)OC2=O)c1O [Compound 384] | – | – | 75 to 100% | – | – | pest or weed control at 100 ppm (Erysiphe graminis—ERYSGT): 75 to 100%
CCCC[C@H]1C(=O)O[C@H](C)C(NC(=O)c2cccc(NC(=O)c3nccc(OC)c3O)c2O)C(=O)O[C@@H](C)[C@@H]1OC(=O)CC(C)C (stereo partly shown) [Compound 473] | – | – | – | – | – | ERYSGT in vivo 1 Day Protectant (Erysiphe graminis—ERYSGT; [7]): − (<25% control of fungal infection); PUCCRT in vivo 1 Day Protectant [1, 7]: + (25-74% control of fungal infection); SEPTTR in vivo 1 Day Protectant (Septoria tritici—SEPTTR; [7]): + (25-74% control of fungal infection); pest or weed control at 100 ppm [2]: 75 to 100%
O=C(Nc1cccc(Oc2cccc(C(F)(F)F)c2)c1)c1nc(Br)ccc1O [Compound 497] | – | – | – | – | – | ERYSGT in vivo 1 Day Protectant (Erysiphe graminis—ERYSGT; [7]): − (<25% control of fungal infection); PUCCRT in vivo 1 Day Protectant [1, 7]: + (25-74% control of fungal infection); SEPTTR in vivo 1 Day Protectant (Septoria tritici—SEPTTR; [7]): + (25-74% control of fungal infection); LEPTNO in vivo 1 Day Protectant [2, 8]: + (25-74% control of fungal infection); PHYTIN in vivo 1 Day Protectant ([3]; tomato plants sprayed at 100 ppm, inoculated after 24 hours, control vs untreated plants): − (<25% control of fungal infection)
COc1ccnc(C(=O)NCC#Cc2ccccc2)c1O [Compound 240] | – | 75 to 100% | – | − (key: +: at least 80% growth inhibition; −: less than 80% growth inhibition) | − (key: +: at least 80% growth inhibition; −: less than 80% growth inhibition) | –
CCC(C)C(=O)O[C@H]1[C@H](C)OC(=O)[C@@H](NC(=O)c2nccc(OC)c2O)COC(=O)[C@@H]1Cc1ccccc1 (stereo partly shown) [Compound 389] | 25 to 74% | 25 to 74% | 75 to 100% | – | – | pest or weed control at 100 ppm (Erysiphe graminis—ERYSGT): < 25%; pest or weed control at 100 ppm [3]: < 25%
COc1ccnc(C(=O)NC2C(=O)c3ccc(-c4ccco4)cc3OC2C)c1O (stereo not shown) [Compound 323] | – | 75 to 100% | 75 to 100% | − (key: +: at least 80% growth inhibition; −: less than 80% growth inhibition) | + (key: +: at least 80% growth inhibition; −: less than 80% growth inhibition) | –
CC(C)C(=O)O[C@H]1[C@H](C)OC(=O)[C@@H](NC(=O)c2nsnc2O)COC(=O)[C@@H]1Cc1ccccc1 [Compound 553] | – | – | – | – | – | pest or weed control at 100 ppm [2, 8]: 75 to 100%; pest or weed control at 100 ppm [3]: 75 to 100%
O=C(Nc1ccc(Cl)cc1)c1ncccc1O [Compound 213] | 75 to 100% | – | – | − (key: +: at least 80% growth inhibition; −: less than 80% growth inhibition) | − (key: +: at least 80% growth inhibition; −: less than 80% growth inhibition) | –
COc1ccnc(C(=O)N[C@H]2COC(=O)[C@H](Cc3ccccc3)[C@@H](OC(=O)Cc3ccccc3)[C@H](C)OC2=O)c1O [Compound 395] | – | – | – | – | – | ERYSGT in vivo 1 Day Protectant (Erysiphe graminis—ERYSGT; wheat (cultivar Monon), sprayed at 100 ppm, control of fungal infection vs untreated plants): − (<25% control of fungal infection); PUCCRT in vivo 1 Day Protectant [1, 5]: + (25-74% control of fungal infection); SEPTTR in vivo 1 Day Protectant (Septoria tritici—SEPTTR; [5]): + (25-74% control of fungal infection); LEPTNO in vivo 1 Day Protectant [2, 6]: + (25-74% control of fungal infection)
COc1ccnc(C(=O)N[C@H]2CC3CC2[C@@H](COCc2cccc(C(F)(F)F)c2)C3)c1O (stereo partly shown) [Compound 295] | – | 75 to 100% | – | − (key: +: at least 80% growth inhibition; −: less than 80% growth inhibition) | + (key: +: at least 80% growth inhibition; −: less than 80% growth inhibition) | –
COc1ccnc(C(=O)NC2CC(C)(C)C(Oc3cc(C(F)(F)F)cc(C(F)(F)F)n3)C(C)(C)C2)c1O (stereo not shown) [Compound 272] | – | 75 to 100% | – | − (key: +: at least 80% growth inhibition; −: less than 80% growth inhibition) | − (key: +: at least 80% growth inhibition; −: less than 80% growth inhibition) | –
COc1cccc(Oc2ccc(NC(=O)c3nccc(OC)c3O)cc2)c1 [Compound 435] | – | – | – | – | – | pest or weed control at 100 ppm (Erysiphe graminis—ERYSGT): < 25%; PUCCRT in vivo 1 Day Protectant [1, 5]: − (<25% control of fungal infection); SEPTTR in vivo 1 Day Protectant (Septoria tritici—SEPTTR; [5]): − (<25% control of fungal infection); LEPTNO in vivo 1 Day Protectant [2, 6]: + (25-74% control of fungal infection)
COc1ccnc(C(=O)N[C@H](C(=O)O[C@@H](C)[C@H](OC(=O)C(C)C)[C@@H](Cc2ccccc2)C(=O)OCc2ccccc2)[C@@H](C)OC(C)=O)c1O [Compound 361] | 75 to 100% | – | – | – | – | –
COc1ccnc(C(=O)N[C@H]2CO[C@@H](C(C)Cc3ccc(C(C)(C)C)cc3)OC2)c1O (stereo partly shown) [Compound 317] | 75 to 100% | – | – | − (key: +: at least 80% growth inhibition; −: less than 80% growth inhibition) | − (key: +: at least 80% growth inhibition; −: less than 80% growth inhibition) | –
COc1ccnc(C(=O)N[C@H]2COC(=O)[C@H](CC3CCCC3)[C@@H](OC(=O)C(C)C)[C@H](C)OC2=O)c1O [Compound 402] | – | – | 75 to 100% | – | – | pest or weed control at 100 ppm (Erysiphe graminis—ERYSGT): 75 to 100%
COc1ccnc(C(=O)N[C@@H](Cc2ccc(OCc3ccccc3)cc2)C(=O)OCc2ccccc2)c1O [Compound 339] | 75 to 100% | 75 to 100% | 75 to 100% | − (key: +: at least 80% growth inhibition; −: less than 80% growth inhibition) | − (key: +: at least 80% growth inhibition; −: less than 80% growth inhibition) | –
COc1ccnc(C(=O)NC2C3CC4C(C3Cl)C42)c1O (stereo not shown) [Compound 304] | – | 75 to 100% | – | − (key: +: at least 80% growth inhibition; −: less than 80% growth inhibition) | + (key: +: at least 80% growth inhibition; −: less than 80% growth inhibition) | –
COc1ccnc(C(=O)N[C@H]2CO[C@H](C(C)Cc3ccc(C(C)(C)C)cc3)OC2)c1O (stereo partly shown) [Compound 316] | 75 to 100% | – | – | + (key: +: at least 80% growth inhibition; −: less than 80% growth inhibition) | − (key: +: at least 80% growth inhibition; −: less than 80% growth inhibition) | –
COc1ccnc(C(=O)N[C@H]2CO[C@](C)(C(C)CC3=C(C)CCCC3(C)C)OC2)c1O (stereo partly shown) [Compound 319] | 75 to 100% | – | – | − (key: +: at least 80% growth inhibition; −: less than 80% growth inhibition) | − (key: +: at least 80% growth inhibition; −: less than 80% growth inhibition) | –
COc1ccnc(C(=O)NC2CCCC(Sc3ccc(C(F)(F)F)cn3)C2)c1O (stereo not shown) [Compound 274] | 75 to 100% | – | 75 to 100% | − (key: +: at least 80% growth inhibition; −: less than 80% growth inhibition) | + (key: +: at least 80% growth inhibition; −: less than 80% growth inhibition) | –
